Where two headings read alike, the source gives them in different places.
Key:
[1] = system: p21 induction in HCT116 cells; assay: p21 induction in HCT116 cells; assay type: cell-based; settings: Homo sapiens, HCT-116, 24 h, read-out: P21_EC50
Method in brief: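 HCT116 cells, 2,000/well, treated 24 h at 37 °C with 11-point compound dilutions in duplicate. Fixed, then immunostained for p21 and GAPDH and read by near-IR imaging at 800/700 nm. Normalized to DMSO (low) and reference WRN inhibitor (high) controls; EC50 from non-linear regression.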

[2] = target: WRN (BV08), human Werner helicase (Uniprot Q14191, amino acids 517-1235 with L1074F point mutation) (Homo sapiens (Human), UniProt Q14191, L1074F); assay: WRN (BV08) ADP-Glo assay; assay type: biochemical; settings: class symbols A-E, read-out: ADP-Glo_hWRN_IC50
WRN (BV08), human Werner helicase (Uniprot Q14191, amino acids 517-1235 with L1074F point mutation), sequence (Q14191 other isoform, or with tags, fused parts or gaps L1074F (already in the parent)): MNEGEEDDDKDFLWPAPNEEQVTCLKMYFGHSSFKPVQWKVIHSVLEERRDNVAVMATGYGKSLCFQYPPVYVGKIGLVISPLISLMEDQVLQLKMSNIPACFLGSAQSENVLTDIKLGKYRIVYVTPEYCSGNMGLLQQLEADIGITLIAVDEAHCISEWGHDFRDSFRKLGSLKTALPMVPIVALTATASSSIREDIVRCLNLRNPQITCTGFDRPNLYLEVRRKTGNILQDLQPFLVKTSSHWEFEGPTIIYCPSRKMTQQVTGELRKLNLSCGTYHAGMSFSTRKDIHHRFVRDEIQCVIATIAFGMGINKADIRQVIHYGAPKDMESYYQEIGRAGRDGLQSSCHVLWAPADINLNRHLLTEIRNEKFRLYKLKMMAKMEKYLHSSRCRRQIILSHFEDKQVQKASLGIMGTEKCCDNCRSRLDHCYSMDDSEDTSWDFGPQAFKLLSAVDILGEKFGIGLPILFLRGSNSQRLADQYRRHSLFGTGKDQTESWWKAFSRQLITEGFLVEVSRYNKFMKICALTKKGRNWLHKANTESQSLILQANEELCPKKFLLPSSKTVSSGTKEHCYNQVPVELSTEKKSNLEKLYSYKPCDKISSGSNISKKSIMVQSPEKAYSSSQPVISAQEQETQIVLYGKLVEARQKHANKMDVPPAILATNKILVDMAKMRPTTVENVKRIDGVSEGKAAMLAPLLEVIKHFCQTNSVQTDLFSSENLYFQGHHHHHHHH

[3] = HCT116 cells, 24 h compound incubation

SMILES | EC50 [1, 3] [nM] | IC50 [2] [nM] | EC50 [1] [nM]
CCc1c(N2CCN(C(=O)c3ncnc(C)c3O)CC2)c(=O)c2nc(N(C)CC)cnc2n1CC(=O)Nc1ccc(C(F)(F)F)cc1Cl [I-74, N-(2-chloro-4-(trifluoromethyl)phenyl)-2-(6-ethyl-2-(ethyl(methyl)amino)-7-(4-(5-hydroxy-6-methylpyrimidine-4-carbonyl)piperazin-1-yl)-8-oxopyrido[2,3-b]pyrazin-5(8H)-yl)acetamide] | 500 to 2000 | 5 to 50 | 
CCc1c(N2CCN(C(=O)c3ncnc(C)c3O)CC2)c(=O)c2nc(N3CCCC3)cnc2n1CC(=O)Nc1ccc(C(F)(F)F)cc1Cl [I-75, N-(2-chloro-4-(trifluoromethyl)phenyl)-2-(6-ethyl-7-(4-(5-hydroxy-6-methylpyrimidine-4-carbonyl)piperazin-1-yl)-8-oxo-2-(pyrrolidin-1-yl)pyrido[2,3-b]pyrazin-5(8H)-yl)acetamide] | 500 to 2000 | 5 to 50 | 
CCc1c(N2CCN(C(=O)c3c(O)ccc4[nH]ncc34)CC2)c(=O)c2ncc(C)nc2n1CC(=O)Nc1ccc(C(F)(F)F)cc1Cl [I-76, N-(2-chloro-4-(trifluoromethyl)phenyl)-2-(6-ethyl-7-(4-(5-hydroxy-1H-indazole-4-carbonyl)piperazin-1-yl)-3-methyl-8-oxopyrido[2,3-b]pyrazin-5(8H)-yl)acetamide] | > 5000 | 5 to 50 | 
CCc1c(N2CCN(C(=O)c3nocc3O)CC2)c(=O)c2ncc(C)nc2n1CC(=O)Nc1ccc(C(F)(F)F)cc1Cl [I-77, N-(2-chloro-4-(trifluoromethyl)phenyl)-2-(6-ethyl-7-(4-(4-hydroxyisoxazole-3-carbonyl)piperazin-1-yl)-3-methyl-8-oxopyrido[2,3-b]pyrazin-5(8H)-yl)acetamide] | > 5000 | 5 to 50 | 
CCc1c(N2CCN(C(=O)c3ncnc(C)c3O)CC2)c(=O)c2nc(-c3cnn(C)c3)cnc2n1CC(=O)Nc1ccc(C(F)(F)F)cc1Cl [I-79, N-(2-chloro-4-(trifluoromethyl)phenyl)-2-(6-ethyl-7-(4-(5-hydroxy-6-methylpyrimidine-4-carbonyl)piperazin-1-yl)-2-(1-methyl-1H-pyrazol-4-yl)-8-oxopyrido[2,3-b]pyrazin-5(8H)-yl)acetamide] | > 5000 | 5 to 50 | 
CCc1c(N2CCN(C(=O)c3ncnc(C)c3O)CC2)c(=O)c2nc(C)cnc2n1CC(=O)Nc1ccc(C(F)(F)F)cc1Cl [I-80, N-(2-chloro-4-(trifluoromethyl)phenyl)-2-(6-ethyl-7-(4-(5-hydroxy-6-methylpyrimidine-4-carbonyl)piperazin-1-yl)-2-methyl-8-oxopyrido[2,3-b]pyrazin-5(8H)-yl)acetamide] | > 5000 | 5 to 50 | 
CCc1c(N2CCN(C(=O)c3ncnc(C)c3O)CC2)c(=O)c2nc(OC)cnc2n1CC(=O)Nc1ccc(C(F)(F)F)cc1Cl [I-81, N-(2-chloro-4-(trifluoromethyl)phenyl)-2-(6-ethyl-7-(4-(5-hydroxy-6-methylpyrimidine-4-carbonyl)piperazin-1-yl)-2-methoxy-8-oxopyrido[2,3-b]pyrazin-5(8H)-yl)acetamide] | > 5000 | 50 to 100 | 
CCc1c(N2CCN(C(=O)c3ncnc(C)c3O)CC2)c(=O)c2nc(C3=CCOCC3)cnc2n1CC(=O)Nc1ccc(C(F)(F)F)cc1Cl [I-82, N-(2-chloro-4-(trifluoromethyl)phenyl)-2-(2-(3,6-dihydro-2H-pyran-4-yl)-6-ethyl-7-(4-(5-hydroxy-6-methylpyrimidine-4-carbonyl)piperazin-1-yl)-8-oxopyrido[2,3-b]pyrazin-5(8H)-yl)acetamide] | > 5000 | 5 to 50 | 
CCc1c(N2CCN(C(=O)c3ncnc(C)c3O)CC2)c(=O)c2nc(C#N)cnc2n1CC(=O)Nc1ccc(C(F)(F)F)cc1Cl [I-83, N-(2-chloro-4-(trifluoromethyl)phenyl)-2-(2-cyano-6-ethyl-7-(4-(5-hydroxy-6-methylpyrimidine-4-carbonyl)piperazin-1-yl)-8-oxopyrido[2,3-b]pyrazin-5(8H)-yl)acetamide] | > 5000 | 5 to 50 | 
CCc1c(N2CCN(C(=O)c3ncnc(C)c3O)CC2)c(=O)c2nc(C(C)(C)O)cnc2n1CC(=O)Nc1ccc(C(F)(F)F)cc1Cl [I-84, N-(2-chloro-4-(trifluoromethyl)phenyl)-2-(6-ethyl-7-(4-(5-hydroxy-6-methylpyrimidine-4-carbonyl)piperazin-1-yl)-2-(2-hydroxypropan-2-yl)-8-oxopyrido[2,3-b]pyrazin-5(8H)-yl)acetamide] | > 5000 | 50 to 100 | 
CCc1c(N2CCN(C(=O)c3ncnc(C)c3O)CC2)c(=O)c2nc(Br)cnc2n1CC(=O)Nc1ccc(C(F)(F)F)cc1Cl [I-86, 2-(2-bromo-6-ethyl-7-(4-(5-hydroxy-6-methylpyrimidine-4-carbonyl)piperazin-1-yl)-8-oxopyrido[2,3-b]pyrazin-5(8H)-yl)-N-(2-chloro-4-(trifluoromethyl)phenyl)acetamide] | 2000 to 5000 | 5 to 50 | 
CCc1c(N2CCN(C(=O)c3ncnc(C)c3O)C(C)(C)C2)c(=O)c2nc(N(C)C)cnc2n1CC(=O)Nc1ccc(C(F)(F)F)cc1Cl [I-87, N-(2-chloro-4-(trifluoromethyl)phenyl)-2-(2-(dimethylamino)-6-ethyl-7-(4-(5-hydroxy-6-methylpyrimidine-4-carbonyl)-3,3-dimethylpiperazin-1-yl)-8-oxopyrido[2,3-b]pyrazin-5(8H)-yl)acetamide] | 500 to 2000 | 5 to 50 | 
CCc1c(N2CCN(C(=O)c3ncnc(C)c3O)CC2)c(=O)c2nc(N3CC[C@H](O)C3)cnc2n1CC(=O)Nc1ccc(C(F)(F)F)cc1Cl [I-88, (S)-N-(2-chloro-4-(trifluoromethyl)phenyl)-2-(6-ethyl-7-(4-(5-hydroxy-6-methylpyrimidine-4-carbonyl)piperazin-1-yl)-2-(3-hydroxypyrrolidin-1-yl)-8-oxopyrido[2,3-b]pyrazin-5(8H)-yl)acetamide] | > 5000 | 5 to 50 | 
CCc1c(N2CCN(C(=O)c3ncnc(C)c3O)CC2)c(=O)c2nc(N3CCNCC3)cnc2n1CC(=O)Nc1ccc(C(F)(F)F)cc1Cl [I-89, N-(2-chloro-4-(trifluoromethyl)phenyl)-2-(6-ethyl-7-(4-(5-hydroxy-6-methylpyrimidine-4-carbonyl)piperazin-1-yl)-8-oxo-2-(piperazin-1-yl)pyrido[2,3-b]pyrazin-5(8H)-yl)acetamide] | > 5000 | 100 to 500 | 
CCc1c(N2CCN(C(=O)c3ncnc(C)c3O)CC2)c(=O)c2nc(C3=CCOC3)cnc2n1CC(=O)Nc1ccc(C(F)(F)F)cc1Cl [I-90, N-(2-chloro-4-(trifluoromethyl)phenyl)-2-(2-(2,5-dihydrofuran-3-yl)-6-ethyl-7-(4-(5-hydroxy-6-methylpyrimidine-4-carbonyl)piperazin-1-yl)-8-oxopyrido[2,3-b]pyrazin-5(8H)-yl)acetamide] | > 5000 | 5 to 50 | 
CCc1c(N2CCN(C(=O)c3ncnc(C)c3O)CC2)c(=O)c2nc(N3CCn4nccc43)cnc2n1CC(=O)Nc1ccc(C(F)(F)F)cc1Cl [I-91, N-(2-chloro-4-(trifluoromethyl)phenyl)-2-(2-(2,3-dihydro-1H-imidazo[1,2-b]pyrazol-1-yl)-6-ethyl-7-(4-(5-hydroxy-6-methylpyrimidine-4-carbonyl)piperazin-1-yl)-8-oxopyrido[2,3-b]pyrazin-5(8H)-yl)acetamide] | > 5000 | 5 to 50 | 
CCc1c(N2CCN(C(=O)c3ncnc(C)c3O)CC2)c(=O)c2nc(N(C)[C@H]3C[C@H](OC)C3)cnc2n1CC(=O)Nc1ccc(C(F)(F)F)cc1Cl [I-92, N-(2-chloro-4-(trifluoromethyl)phenyl)-2-(6-ethyl-7-(4-(5-hydroxy-6-methylpyrimidine-4-carbonyl)piperazin-1-yl)-2-(((1r,3r)-3-methoxycyclobutyl)(methyl)amino)-8-oxopyrido[2,3-b]pyrazin-5(8H)-yl)acetamide] | 500 to 2000 | 5 to 50 | 
CCc1c(N2CCN(C(=O)c3ncnc(C)c3O)CC2)c(=O)c2nc(N3CCC4CC43)cnc2n1CC(=O)Nc1ccc(C(F)(F)F)cc1Cl (stereo not drawn) [I-93, 2-(2-(2-azabicyclo[3.1.0]hexan-2-yl)-6-ethyl-7-(4-(5-hydroxy-6-methylpyrimidine-4-carbonyl)piperazin-1-yl)-8-oxopyrido[2,3-b]pyrazin-5(8H)-yl)-N-(2-chloro-4-(trifluoromethyl)phenyl)acetamide] | 500 to 2000 | 5 to 50 | 
CCc1c(N2CCN(C(=O)c3ncnc(C)c3O)CC2)c(=O)c2nc(-c3cn[nH]c3)cnc2n1CC(=O)Nc1ccc(C(F)(F)F)cc1Cl [I-94, N-(2-chloro-4-(trifluoromethyl)phenyl)-2-(6-ethyl-7-(4-(5-hydroxy-6-methylpyrimidine-4-carbonyl)piperazin-1-yl)-8-oxo-2-(1H-pyrazol-4-yl)pyrido[2,3-b]pyrazin-5(8H)-yl)acetamide] | > 5000 | 5 to 50 | 
CCc1c(N2CCN(C(=O)c3ncnc(C)c3O)CC2)c(=O)c2nc3nc(C)sc3nc2n1CC(=O)Nc1ccc(C(F)(F)F)cc1Cl [I-95, N-(2-chloro-4-(trifluoromethyl)phenyl)-2-(6-ethyl-7-(4-(5-hydroxy-6-methylpyrimidine-4-carbonyl)piperazin-1-yl)-2-methyl-8-oxopyrido[2,3-b]thiazolo[4,5-e]pyrazin-5(8H)-yl)acetamide] |  | 5 to 50 | 500 to 2000
CCc1c(N2CCN(C(=O)c3ncnc(C)c3O)C[C@@H]2C)c(=O)c2nc(N(C)C)cnc2n1CC(=O)Nc1ccc(C(F)(F)F)cc1Cl [I-98, (S)—N-(2-chloro-4-(trifluoromethyl)phenyl)-2-(2-(dimethylamino)-6-ethyl-7-(4-(5-hydroxy-6-methylpyrimidine-4-carbonyl)-2-methylpiperazin-1-yl)-8-oxopyrido[2,3-b]pyrazin-5(8H)-yl)acetamide] | < 500 | 5 to 50 | 
